Assay results: patent publication US5059624A, “Guanidine derivatives having hypotensive activity, composition containing them and process for obtaining them” (Consiglio Nazionale Delle Ricerche, priority 1988, dated 1991)
Where a SMILES comes first, the peptide text is derived from it.

Test system: male Wistar rats
Test: Comparison with known active ingredients in male Wistar rats under sodium thiopental anaesthesia, rapid i.v. or 5 min infusion
Type: in vivo, rat (male Wistar)
Protocol: In order to compare the activity of the compounds of the present invention to that of the products of the prior art, various doses of known anti-hypertensive, hypotensive and vasoactive drugs were administered to male Wistar rats under general anaesthesia by sodium thiopental (50 mg/kg, i.p.). The administration was effected through "rapid" i.v. route or through intravenous infusion (inf.) for a time of 5 minutes.
The dose of each product is referred to the base, and the volumes injected were of 100 mcl in case of i.v. administration and […] total (0.9% sodium chloride solution) in case of infusion. The various parameters were evaluated in the same way as in the preceding experiments.

[1] = 5 mcg/kg, i.v., maximum response
[2] = 0.75 mcg/kg, i.v., maximum response
[3] = 2.5 mg/kg, i.v., maximum response

Row | SMILES | Δ AP DIASTOLIC [1] [mmHg] | Δ AP SYSTOLIC [1] [mmHg] | Δ HR [1] [beats/min] | Δ dp/dt [1] [mmHg/sec] | Δ HR (rat, in vivo) [beats/min] | Δ dp/dt (rat, in vivo) | other results
1 | NCCc1c[nH]c2ccc(O)cc12 [5-hydroxytriptamine] | -39 ± 2 | -37 ± 3 | -12 ± 3 | -1410 ± 167 | – | – | –
2 | NC(N)=NCCC[C@H](NC(=O)[C@H](Cc1ccccc1)NC(=O)[C@@H]1CCCN1C(=O)[C@H](CO)NC(=O)[C@H](Cc1ccccc1)NC(=O)CNC(=O)[C@@H]1CCCN1C(=O)[C@@H]1CCCN1C(=O)[C@@H](N)CCCN=C(N)N)C(=O)O [Bradykinin] (H-RPPGFSPFR-OH) | – | – | – | – | – | – | Δ AP DIASTOLIC [2]: -18 ± 4 mmHg; Δ AP SYSTOLIC [2]: -18 ± 3 mmHg; Δ HR [2]: -11 ± 2 beats/min; Δ dp/dt [2]: -830 ± 124 mmHg/sec
3 | Clc1cccc(Cl)c1N=C1NCCN1 [Clonidine] | – | – | – | – | -40 ± 8 | -871 ± 74 | general effects on the various haemodynamic parameters (in words) (rat, in vivo): general "depressive" effects; Δ AP DIASTOLIC (rat, in vivo): -9 ± 1 mmHg; Δ AP SYSTOLIC (rat, in vivo): -15 ± 4 mmHg
4 | N=C(N)NCCN1CCCCCCC1 [Guanetidine] | – | – | – | – | -18 ± 6 | -863 ± 160 | –
5 | C[N+](C)(C)CCCCCC[N+](C)(C)C [Hexameton] | – | – | – | – | – | – | Δ AP DIASTOLIC [3]: -34 ± 2 mmHg; Δ AP SYSTOLIC [3]: -44 ± 2 mmHg; Δ HR [3]: -48 ± 9 beats/min; Δ dp/dt [3]: -4040 ± 812 mmHg/sec
6 | NCCc1c[nH]cn1 [Histamine] | -28 ± 3 | -30 ± 3 | -7 ± 1 | -1314 ± 180 | – | – | –
